Experimental data from patent US8063095B2, “IAP BIR domain binding compounds” (Pharmascience Inc., priority 2005, dated 2011).

Tested on: SKOV-3 (ovarian) cancer cells
Test: Cell viability (MTT) assay, SKOV3 cells
Details: 72 hours, MTT based assay; compounds added either alone or in presence of 1-3 ng/ml of TRAIL
Protocol: (§1) MDA-MD-231 (breast) and SKOV-3 (ovarian) cancer cells were cultured in RPMI1640 media supplemented with 10% FBS and 100 units/mL of Penicillin and Steptomycin.
(§2) Viability assays were done on a number of cells including MDA-MB-231, SKOV-3, H460, PC3, HCT-116, and SW480 cells. Cells were seeded in 96 well plates at a respective density of 5000 and 2000 cells per well and incubated at 37° C. in presence of 5% CO2 for 24 hours. Selected compounds were diluted into the media at various concentration ranging from 0.01 uM up to 100 uM. Diluted compounds were added onto the MDA-MB-231 cells. For the MDA-MB-231 SKOV3, H460, PC3, HCT-116, and SW480 cells, the compounds were added either alone or in presence of 1-3 ng/ml of TRAIL. After 72 hours cellular viability was evaluated by MTT based assays.

Row | EC50 | SMILES
1 | > 1 µM | CN[C@@H](C)C(=O)N[C@@H](CC(=O)NCCNC(=O)C[C@H](NC(=O)[C@H](C)NC)C(=O)N1CCC[C@H]1CN(CCc1ccccc1)C(=O)C(F)(F)F)C(=O)N1CCC[C@H]1CN(CCc1ccccc1)C(=O)C(F)(F)F [Compound 32]
2 | < 0.1 µM | CN[C@@H](C)C(=O)N[C@H](C(=O)N1CCC[C@H]1CN(CCc1ccccc1)C(=O)C(F)(F)F)[C@@H](C)OCCCCCCO[C@H](C)[C@H](NC(=O)[C@H](C)NC)C(=O)N1CCC[C@H]1CN(CCc1ccccc1)C(=O)C(F)(F)F [Compound 36]
3 | < 0.1 µM | CN[C@@H](C)C(=O)N[C@H](C(=O)N1CCC[C@H]1CN(CCc1ccccc1)S(C)(=O)=O)[C@@H](C)OCCCCCCO[C@H](C)[C@H](NC(=O)[C@H](C)NC)C(=O)N1CCC[C@H]1CN(CCc1ccccc1)S(C)(=O)=O [Compound 37]
4 | < 0.1 µM | CN[C@@H](C)C(=O)NC(CCCNC(=O)c1ccc(C(=O)NCCC[C@H](NC(=O)[C@H](C)NC)C(=O)N2CCC[C@H]2C(=O)N[C@@H]2CCCc3ccccc32)cc1)C(=O)N1CCC[C@H]1CN(CCc1ccccc1)C(=O)C(F)(F)F (some centres unmarked) [Compound 38]
5 | < 1 µM | CN[C@@H](C)C(=O)NC(CCCNC(=O)c1ccc(C(=O)NCCC[C@H](NC(=O)[C@H](C)NC)C(=O)N2CCC[C@H]2CN(CCc2ccccc2)C(=O)C(F)(F)F)cc1)C(=O)N1CCC[C@H]1CN(CCc1ccccc1)C(=O)C(F)(F)F (some centres unmarked) [Compound 39]
6 | < 1 µM | CN[C@@H](C)C(=O)NC(CCCNC(=O)CCC(=O)NCCC[C@H](NC(=O)[C@H](C)NC)C(=O)N1CCC[C@H]1CN(CCc1ccccc1)S(=O)(=O)c1ccc(F)cc1)C(=O)N1CCC[C@H]1CN(CCc1ccccc1)S(=O)(=O)c1ccc(F)cc1 (some centres unmarked) [Compound 40]
7 | < 1 µM | CN[C@@H](C)C(=O)N[C@@H](CCCNC(=O)C(=O)NCCC[C@H](NC(=O)[C@H](C)NC)C(=O)N1CCC[C@H]1CN(CCc1ccccc1)S(=O)(=O)c1ccc(F)cc1)C(=O)N1CCC[C@H]1CN(CCc1ccccc1)S(=O)(=O)c1ccc(F)cc1 [Compound 41]
8 | > 1 µM | CN[C@@H](C)C(=O)N[C@@H](CCCNC(=O)NCCC[C@H](NC(=O)[C@H](C)NC)C(=O)N1CCC[C@H]1CN(CCc1ccccc1)S(=O)(=O)c1ccc(F)cc1)C(=O)N1CCC[C@H]1CN(CCc1ccccc1)S(=O)(=O)c1ccc(F)cc1 [Compound 42]

Tested on: MDA-MB-231 (breast) cancer cells
Test: Cell viability (MTT) assay, MDA cells
Details: 72 hours, MTT based assay
Protocol: as §1, §2

Row | EC50 | SMILES
9 | < 0.1 µM | CN[C@@H](C)C(=O)N[C@@H](CCC(=O)NCCNC(=O)CC[C@H](NC(=O)[C@H](C)NC)C(=O)N1CCC[C@H]1CN(CCc1ccccc1)C(=O)C(F)(F)F)C(=O)N1CCC[C@H]1CN(CCc1ccccc1)C(=O)C(F)(F)F [Compound 30]
10 | < 0.1 µM | CN[C@@H](C)C(=O)N[C@@H](CCC(=O)NCCNC(=O)CC[C@H](NC(=O)[C@H](C)NC)C(=O)N1CCC[C@H]1CN(CCc1ccccc1)C(=O)C(F)(F)F)C(=O)N1CCC[C@H]1CN(CCc1ccccc1)C(=O)C(F)(F)F [Compound 31]

Same assay, conditions: Homo sapiens, MDA-MB-231, 72 h, MTT based assay

Row | EC50 | SMILES
11 | < 1 µM | CNCC(=O)N(CCc1ccccc1)C[C@@H]1CCCN1C(=O)[C@@H](NC(=O)[C@H](C)NC)[C@@H](C)OCC#CC#CCO[C@H](C)[C@H](NC(=O)[C@H](C)NC)C(=O)N1CCC[C@H]1CN(CCc1ccccc1)C(=O)CNC [Compound 27]
12 | < 0.1 µM | CN[C@@H](C)C(=O)N[C@H](C(=O)N1CCC[C@H]1CN(CCc1ccccc1)C(=O)C(F)F)[C@@H](C)OCC#CC#CCO[C@H](C)[C@H](NC(=O)[C@H](C)NC)C(=O)N1CCC[C@H]1CN(CCc1ccccc1)C(=O)C(F)F [Compound 28]
13 | < 1 µM | CN[C@@H](C)C(=O)N[C@@H](CC(=O)NCCNC(=O)C[C@H](NC(=O)[C@H](C)NC)C(=O)N1CCC[C@H]1CN(CCc1ccccc1)C(=O)C(F)(F)F)C(=O)N1CCC[C@H]1CN(CCc1ccccc1)C(=O)C(F)(F)F [Compound 35]

Same assay, conditions: Homo sapiens, MDA-MB-231; 72 hours, MTT based assay

Row | SMILES | EC50
14 | CN[C@@H](C)C(=O)N[C@H](C(=O)N1CCC[C@H]1CN(CCc1ccccc1)C(=O)CF)[C@@H](C)OCC#CC#CCO[C@H](C)[C@H](NC(=O)[C@H](C)NC)C(=O)N1CCC[C@H]1CN(CCc1ccccc1)C(=O)CF [Compound 29] | < 0.1 µM
